Laboratory results published in patent US10787512B2, “Melatonin monoclonal antibody, detection, methods and uses thereof” (SALIMETRICS, LLC, priority 2013, dated 2020).

Legend:
[1] = test system: rabbit monoclonal antibody to Melatonin; assay: Specificity of Salimetrics Salivary Melatonin kit, cross reactants spiked into saliva; type: binding; details: spiked into saliva up to 2000 pg/ml; melatonin EC50 (B/Bo=0.5) divided by cross reactant EC50
Description: The Salimetrics™ Salivary Melatonin kit is a competitive immunoassay designed and validated for the quantitative measurement of salivary melatonin. The assay format and detection method are illustrated in FIG. 3, and are briefly summarized as follows: A microtitre plate is coated with rabbit monoclonal antibody to melatonin. Melatonin in standards, controls and unknowns compete with melatonin linked to horseradish peroxidase for the antibody binding sites on the microplate. After incubation, unbound components are washed away. Bound melatonin peroxidase is measured by the reaction of the horseradish peroxidase enzyme with the substrate tetramethylbenzidine (TMB). This reaction produces a blue color. A yellow color is formed after stopping the reaction with 2-molar acid solution. Optical density is read on a standard microplate reader at 450 nm-630 nm. The amount of melatonin-tagged peroxidase detected, as measured by the intensity of color, is inversely proportional to the amount of melatonin present in the sample.
Step 2: Keep the desired number of strips in the strip holder and place the remaining strips back in the foil pouch. Reseal the foil pouch with unused wells and desiccant. Store at 2-8° C. […] Step 3: Pipette 8 ml of Melatonin Assay Diluent into a disposable tube. (Scale down proportionally if not using a full plate). Set aside for Step 5. Step 4: Pipette 100 μL, of standards, controls, and unknown samples into appropriate wells. Standards, controls, and unknown samples should be assayed in duplicate. • Pipette 100 μL, of Melatonin Assay Diluent into 2 wells for the 0 Standard. Step 5: Dilute the enzyme conjugate 1:500 by adding 16 μL of the conjugate to the 8 ml of melatonin assay diluent prepared in Step 3. (Scale down proportionally if not using the entire plate.) Conjugate tube may be centrifuged for a few minutes to bring the liquid down to the tube bottom. Immediately mix the diluted conjugate solution and add 50 μL to each well using a multichannel pipette. Step 6: Place adhesive cover (provided) over plate. Mix plate constantly on a plate rotator at 500 rpm and incubate at 2-8° C. for a total of 3 hours. Step 7: Wash the plate 4 times with 1× wash buffer. A plate washer is recommended. However, washing may be done by gently squirting wash buffer into each well with a squirt bottle, or by pipetting 300 μL, of wash buffer into each well and then discarding the liquid by inverting the plate over a sink. After each wash, the plate should be thoroughly blotted on paper towels before turning upright. If using a plate washer, blotting is still recommended after the last wash. Step 8: Add 100 μL of TMB substrate solution to each well with a multichannel pipette. Step 9: Incubate the plate in the dark at room temperature for 30 minutes mixing constantly on a plate rotator at 500 rpm. Step 10: Add 50 μL of 2M stop solution with a multichannel pipette. Step 11: Mix on a plate rotator for 3 minutes at 500 rpm. Spillage may occur if mixing speed exceeds 600 rpm. If green color remains, continue mixing until green color turns to yellow. Be sure all wells have turned yellow. • Wipe off bottom of plate with a water-moistened, lint-free cloth and wipe dry. • Read in a plate reader at 450 nm with a secondary filter at 620 to 630 nm. Performance characteristics are not known without secondary or reference filter. Read the plate within 10 minutes of adding 2M stop solution. High and Low salivary Melatonin controls should be run with each assay. The control ranges established are to be used as a guide. Each laboratory should establish its own range. Variations between laboratories may be caused by differences in techniques and instrumentation.
Calculations • 1. Compute the average optical density (OD) for all duplicate wells. • 2. Calculate the percent bound (B/Bo) for each standard, control and unknown by dividing the OD of each well (B) by the average OD for the 0 (Bo). • 3. […]

[2] = test system: rabbit monoclonal antibody to Melatonin; assay: Cross reactivity in Rapid Melatonin ELISA (competitive, melatonin-HRP); type: binding; details: tested at 10 to 20-fold above the highest standard (50 pg/ml); predicted value as melatonin divided by actual concentration added
Description: A microtitre plate (described below) is coated with the rabbit monoclonal antibody to Melatonin. Melatonin in standards and unknowns competes with Melatonin linked to horseradish peroxidase for the antibody binding sites. After incubation unbound components are washed away. Bound Melatonin peroxidase is measured by the reaction of the peroxidase enzyme on the substrate tetramethylbenzidine (TMB). This reaction produces a blue color. A yellow color is formed after stopping the reaction with 2-molar sulfuric acid. Optical density is read on a standard plate reader at 450 nm. The amount of Melatonin peroxidase detected is inversely proportional to the amount of Melatonin present.
Microwell plates (CoStar High Binder) were coated overnight with 0.5 ug/ml goat anti-rabbit at room temperature [100 uL/well]; Coating Buffer-NaHCO3 (2.93 g)+Na2CO3 (1.59 g) in 1000 ml Water, pH 9.6 under controlled humidity. After washing the plates 3 times in a wash buffer comprised of PBS (phosphate buffered saline) with 0.05% Tween 20, the plates were then coated with the rabbit monoclonal at 10 ng/ml in PBS with 0.01% BSA (bovine serum albumin) overnight at room temperature under controlled humidity. The plates were again washed and coated with 0.5% Stabilcoat (Surmodics) containing 0.1% normal rabbit serum. After approximately 2 hours the plates were aspirated, dried and pouched.
A primary dilution of Melatonin-HRP was made at 50 ug/ml in […]® Conjugate stabilizer (Pierce-Thermo) for storage. At the time of the assay, it is then diluted to 100 ng/ml in a phosphate or Tris Buffered Saline, pH 7.2 with 1% BSA (Diluent).
Melatonin reference material from Cerilliant was diluted in diluent to 50 pg/ml. The standard curve was prepared by making 2× serial dilutions to 0.78 pg/ml in Diluent. Pipette: 100 ul Melatonin Standards/Samples/Controls to each well of the coated microwell plate. Pipette: 50 ul conjugate to each well. Incubate: 3 hr at 2-8° C. or Room Temperature with shaking (˜500 rpm). Wash: 4×300 uL, no soak. Pipette: 100 uL tetramethylbenzidine (TMB). Incubate: Room Temp for 30 min with shaking. Pipette: 50 uL 2M H2SO4. Mix 10-15 seconds. Read Plate: OD 450-630 nm.
Chemical compounds with structural similarity to melatonin were tested at levels 10 to 20-fold higher than the highest standard (50 pg/ml) as samples. The predicted value (as melatonin) was divided by the actual concentration added to calculate % cross-reactivity.

[3] = Storage stability of melatonin in saliva samples; type: physicochemical; details: after 4 days at 2-8° C.
Description: Sample Handling and Preparation • After collection it is important to keep samples cold, to minimize bacterial growth in the specimen. Refrigerate sample within 30 minutes, and freeze at or below −20° C. within 4 hours of collection. […] On day of assay, thaw the saliva samples completely, vortex, and centrifuge at 1500×g (@3000 rpm) for 15 minutes. Centrifuging removes mucins and other particulate matter which may interfere with antibody binding, leading to falsely elevated results. Samples should be at room temperature before adding to assay plate. Pipette clear sample into appropriate wells. Re-freeze saliva samples as soon as possible after adding to the assay plate. Centrifuge/re-centrifuge saliva samples each time that they are thawed. Avoid more than 2 freeze-thaw cycles after the initial freeze/thaw.

| Structure (SMILES) | Cross Reactivity [1] | Cross Reactivity (%) [2] | Decrease of Melatonin levels [3] |
| --- | --- | --- | --- |
| COc1cc2c(CCNC(C)=O)c[nH]c2cc1O [6-hydroxy melatonin] | <0.05% | <0.05% |  |
| COc1ccc2[nH]cc(CCNC(C)=O)c2c1 [Melatonin, N-acetyl-5-methoxytryptamine] |  |  | ≥ 20% |
| COc1cc2c(CCNC(C)=O)c[nH]c2cc1Cl [6-chloro melatonin] | 5.40% | 5.40% |  |
| N[C@@H](Cc1c[nH]c2ccccc12)C(=O)O [L-Tryptophan] | <0.05% | <0.05% |  |
| COc1ccc(NC=O)c(C(=O)CCNC(C)=O)c1 [AFMK, N^1-acetyl-N^2-formyl-5-methoxykynuramine] | 16.5% | 16.5% |  |
| NCCc1c[nH]c2ccc(O)cc12 [Serotonin] | <0.05% | <0.05% |  |
| Cn1c(=O)c2c(ncn2C)n(C)c1=O [Caffeine] | <0.05% | <0.05% |  |
| COc1ccc2[nH]cc(CCN)c2c1 [5-methoxy tryptamine] | <0.05% | <0.05% |  |
| COc1ccc2[nH]cc(CCO)c2c1 [5-methoxy tryptophol] | 1.25% | 1.30% |  |
| CC(=O)NCCc1c[nH]c2ccc(O)cc12 [N-acetyl serotonin] | <0.05% | <0.05% |  |
